Sander's compilation of Henry's law constants
“And” between values parts separate entries of the source, which are not always exact repeats. Identical values can stand only once.

Experiments:
[1] = Henry solubility constant Hcp at 290 K (mol/(m3 Pa)); details: reference: Thomas et al. (2006)
[2] = Henry solubility constant Hcp at 298.15 K (mol/(m3 Pa))
[3] = Henry solubility constant Hcp at 303 K (mol/(m3 Pa)); details: reference: Richon et al. (1985)
[4] = Henry solubility constant Hcp at 297 K (mol/(m3 Pa))
[5] = Henry solubility constant Hcp at 293 K (mol/(m3 Pa))
[6] = Henry solubility constant Hcp at 301 K (mol/(m3 Pa)); details: reference: Nelson and Hoff (1968)
[7] = Henry solubility constant Hcp at 308 K (mol/(m3 Pa)); details: reference: Guo and Brimblecombe (2007)
[8] = Henry solubility constant Hcp at 283 K (mol/(m3 Pa))
[9] = Henry solubility constant Hcp at 294 K (mol/(m3 Pa))
[10] = Henry solubility constant Hcp at 278 K (mol/(m3 Pa)); details: reference: De Bruyn et al. (1995a)
[11] = Henry solubility constant Hcp at 284 K (mol/(m3 Pa)); details: reference: George et al. (1994b)
[12] = Henry solubility constant Hcp at 288 K (mol/(m3 Pa))
[13] = Henry solubility constant Hcp at 311 K (mol/(m3 Pa)); details: reference: Grollman (1929)
[14] = reference: Mirabel et al. (1996)

In the case of Cl/C=C\CCl [cis-1,3-dichloropropene], the “Henry solubility constant Hcp at 290 K” value [1] is reported as 0.01 and the “Henry solubility constant Hcp” value ([2]; reference: Leistra (1970)) is reported as 0.005.

In the case of CC(C)=O [propanone], the “Henry solubility constant Hcp at 303 K” value [3] is reported as 0.19, the “Henry solubility constant Hcp at 297 K” value ([4]; reference: Nozière and Riemer (2003)) is reported as 0.27 and the “Henry solubility constant Hcp at 293 K” value ([5]; reference: Yu (1992)) is reported as 0.17. The “Henry solubility constant Hcp” value ([2]; reference: Benkelberg et al. (1995)) was 0.27, the “Henry solubility constant Hcp” value ([2]; reference: Betterton (1991)) was 0.32 and the “Henry solubility constant Hcp” value ([2]; reference: Burnett (1963)) was 0.28. For the same molecule, the “Henry solubility constant Hcp” value ([2]; reference: Chai et al. (2005)) was 0.24, the “Henry solubility constant Hcp” value ([2]; reference: Ioffe et al. (1984)) was 0.2 and the “Henry solubility constant Hcp” value ([2]; reference: Ji and Evans (2007)) was 0.26. For the same molecule, the “Henry solubility constant Hcp” value ([2]; reference: Lichtenbelt and Schram (1985)) was 0.26, the “Henry solubility constant Hcp” value ([2]; reference: Poulain et al. (2010)) was 0.29 and the “Henry solubility constant Hcp” value ([2]; reference: Schoene and Steinhanses (1985)) was 0.32. For the same molecule, the “Henry solubility constant Hcp” value ([2]; reference: Snider and Dawson (1985)) was 0.25, the “Henry solubility constant Hcp” value ([2]; reference: Straver and de Loos (2005)) was 0.24 and the “Henry solubility constant Hcp” value ([2]; reference: Strekowski and George (2005)) was 0.26. For the same molecule, the “Henry solubility constant Hcp” value ([2]; reference: Vitenberg et al. (1974)) was 0.25 and 0.32, the “Henry solubility constant Hcp” value ([2]; reference: Vitenberg et al. (1975)) was 0.25 and the “Henry solubility constant Hcp at 301 K” value [6] was 0.31.

With O=[N+]([O-])c1cccc(O)c1 [3-nitrophenol] the “Henry solubility constant Hcp at 308 K” value [7] was 160.

With C=CCl [chloroethene] the “Henry solubility constant Hcp” value ([2]; reference: Chen et al. (2012)) was 0.00041, the “Henry solubility constant Hcp” value ([2]; reference: Gossett (1987)) was 0.00037 and the “Henry solubility constant Hcp at 283 K” value ([8]; reference: Pearson and McConnell (1975)) was 8.5e-06.

For CBr [bromomethane], the “Henry solubility constant Hcp at 290 K” value [1] was 0.002, the “Henry solubility constant Hcp at 294 K” value ([9]; reference: Gan and Yates (1996)) was 0.0014 and the “Henry solubility constant Hcp” value ([2]; reference: De Bruyn and Saltzman (1997)) was 0.0018. The “Henry solubility constant Hcp” value ([2]; reference: Elliott and Rowland (1993)) was 0.0017, the “Henry solubility constant Hcp” value ([2]; reference: Glew and Moelwyn-Hughes (1953)) was 0.0016 and the “Henry solubility constant Hcp” value ([2]; reference: Swain and Thornton (1962)) was 0.0015.

With O=C(F)C(F)(F)F [trifluoroacetylfluoride] the “Henry solubility constant Hcp at 278 K” value [10] was 0.0095, the “Henry solubility constant Hcp at 284 K” value [11] was 0.03 and the “Henry solubility constant Hcp” value [2, 14] was 0.03.

For [N]=O [nitrogen monoxide], the “Henry solubility constant Hcp at 297 K” value ([4]; reference: Zafiriou and McFarland (1980)) was 1.3e-05, the “Henry solubility constant Hcp” value ([2]; reference: Komiyama and Inoue (1978)) was 1.9e-05 and the “Henry solubility constant Hcp” value ([2]; reference: Winkler (1901)) was 1.9e-05. For the same molecule, the “Henry solubility constant Hcp at 288 K” value ([12]; reference: Komiyama and Inoue (1980)) was 2.3e-05.

In the case of Cl/C=C/CCl [trans-1,3-dichloropropene], the “Henry solubility constant Hcp at 290 K” value [1] is reported as 0.015 and the “Henry solubility constant Hcp” value ([2]; reference: Leistra (1970)) is reported as 0.0081.

In the case of CCOC(C)=O [ethyl ethanoate], the “Henry solubility constant Hcp at 303 K” value [3] is reported as 0.043, the “Henry solubility constant Hcp” value ([2]; reference: Ammari and Schroen (2019)) is reported as 0.052 and the “Henry solubility constant Hcp” value ([2]; reference: Aprea et al. (2007)) is reported as 0.051. The “Henry solubility constant Hcp” value ([2]; reference: Butler and Ramchandani (1935)) was 0.074, the “Henry solubility constant Hcp” value ([2]; reference: Druaux et al. (1998)) was 0.066 and the “Henry solubility constant Hcp” value ([2]; reference: Fenclová et al. (2014)) was 0.062. For the same molecule, the “Henry solubility constant Hcp” value ([2]; reference: Jones et al. (1988)) was 0.062, the “Henry solubility constant Hcp” value ([2]; reference: Kieckbusch and King (1979b)) was 0.058 and the “Henry solubility constant Hcp” value ([2]; reference: Kutsuna and Kaneyasu (2021)) was 0.059. The “Henry solubility constant Hcp” value ([2]; reference: Kutsuna et al. (2005)) was 0.059, the “Henry solubility constant Hcp” value ([2]; reference: Landy et al. (1995)) was 0.057 and the “Henry solubility constant Hcp at 301 K” value [6] was 0.057. For the same molecule, the “Henry solubility constant Hcp at 288 K” value ([12]; reference: Ioffe et al. (1984)) was 0.13 and the “Henry solubility constant Hcp at 288 K” value ([12]; reference: Pividal et al. (1992)) was 0.11.

In the case of CC(C)CC=O [3-methylbutanal], the “Henry solubility constant Hcp” value ([2]; reference: Bruneel et al. (2016)) is reported as 0.011, the “Henry solubility constant Hcp” value ([2]; reference: Pollien et al. (2003)) is reported as 0.026 and the “Henry solubility constant Hcp” value ([2]; reference: Wieland et al. (2015)) is reported as 0.024. For the same molecule, the “Henry solubility constant Hcp at 301 K” value [6] was 0.02.

In the case of O=[N+]([O-])c1ccc(O)cc1 [4-nitrophenol], the “Henry solubility constant Hcp at 308 K” value [7] is reported as 210.

With O=C(Cl)C(F)(F)F [trifluoroacetylchloride] the “Henry solubility constant Hcp at 278 K” value [10] was 0.0027, the “Henry solubility constant Hcp at 284 K” value [11] was 0.02 and the “Henry solubility constant Hcp” value [2, 14] was 0.02.

With CC(=O)OO[N+](=O)[O-] [peroxyacetyl nitrate] the “Henry solubility constant Hcp at 293 K” value ([5]; reference: Kames and Schurath (1995)) was 0.04, the “Henry solubility constant Hcp” value ([2]; reference: Easterbrook et al. (2023)) was 0.03 and the “Henry solubility constant Hcp” value ([2]; reference: Frenzel et al. (2000)) was 0.023. For the same molecule, the “Henry solubility constant Hcp” value ([2]; reference: Kames et al. (1991)) was 0.028 and the “Henry solubility constant Hcp at 283 K” value ([8]; reference: Holdren et al. (1984)) was 0.049.

In the case of C=C [ethene], the “Henry solubility constant Hcp” value ([2]; reference: Maaßen (1995)) is reported as 4.9e-05, the “Henry solubility constant Hcp” value ([2]; reference: Morrison and Billett (1952)) is reported as 4.7e-05 and the “Henry solubility constant Hcp” value ([2]; reference: Orcutt and Seevers (1937a)) is reported as 4.8e-05. The “Henry solubility constant Hcp” value ([2]; reference: Reichl (1995)) was 4.8e-05, the “Henry solubility constant Hcp” value ([2]; reference: Winkler (1906)) was 4.8e-05 and the “Henry solubility constant Hcp at 311 K” value [13] was 3.4e-05.

For Clc1ccc(-c2ccccc2Cl)cc1 [2,4'-dichlorobiphenyl], the “Henry solubility constant Hcp at 294 K” value ([9]; reference: Brownawell (1986)) was 0.057, the “Henry solubility constant Hcp” value ([2]; reference: Charles and Destaillats (2005)) was 0.023 and the “Henry solubility constant Hcp” value ([2]; reference: Murphy et al. (1983a)) was 0.045.

In the case of C[Si]1(C)O[Si](C)(C)O[Si](C)(C)O[Si](C)(C)O[Si](C)(C)O[Si](C)(C)O1 [dodecamethylcyclohexasiloxane], the “Henry solubility constant Hcp at 297 K” value ([4]; reference: Xu and Kropscott (2012)) is reported as 4e-07.

For C#C [ethyne], the “Henry solubility constant Hcp” value ([2]; reference: Gatterer (1926)) was 0.00042, the “Henry solubility constant Hcp” value ([2]; reference: Jadkar and Chaudhari (1980)) was 0.0004 and the “Henry solubility constant Hcp” value ([2]; reference: Kremann and Hönel (1913)) was 0.00037. For the same molecule, the “Henry solubility constant Hcp” value ([2]; reference: Maillard and Rosenthal (1952)) was 0.00025, the “Henry solubility constant Hcp” value ([2]; reference: Winkler (1906)) was 0.00041 and the “Henry solubility constant Hcp at 311 K” value [13] was 0.00033. The “Henry solubility constant Hcp at 288 K” value ([12]; reference: Billitzer (1902)) was 0.00051.
